The subject of this series is CCRIS mutagenicity, Ames/micronucleus/aberration tests. Kind of series: CCRIS mutagenicity studies.
Setting [1] is: Test System: AMES SALMONELLA TYPHIMURIUM, Strain/Indicator: TA98, Metabolic Activation: NONE, Method: PREINCUBATION
[2] abbreviates: Test System: AMES SALMONELLA TYPHIMURIUM, Strain/Indicator: TA100, Metabolic Activation: HAMSTER, LIVER, S-9, AROCLOR 1254 (30%), Method: PREINCUBATION
The mark [3] stands for this setting: Test System: AMES SALMONELLA TYPHIMURIUM, Strain/Indicator: TA100, Metabolic Activation: NONE, Method: PREINCUBATION
Setting [4] is: Test System: AMES SALMONELLA TYPHIMURIUM, Strain/Indicator: TA98, Metabolic Activation: NONE, Method: STANDARD PLATE.
Where [5] appears, read: Test System: AMES SALMONELLA TYPHIMURIUM, Strain/Indicator: TA100, Metabolic Activation: NONE, Method: STANDARD PLATE.
Where [6] appears, read: Test System: AMES SALMONELLA TYPHIMURIUM, Strain/Indicator: TA1537, Metabolic Activation: NONE, Method: STANDARD PLATE.

Each structure is given as a SMILES string. The source made the active and inactive calls. The rule behind the calls is not given here.

Turning to `OCCCCO`, the mutagenic call is “inactive; negative” (Test System: AMES SALMONELLA TYPHIMURIUM, Strain/Indicator: TA97, Metabolic Activation: HAMSTER, LIVER, S-9, AROCLOR 1254 (10 OR 30%), Method: PREINCUBATION); “inactive; negative” (Test System: AMES SALMONELLA TYPHIMURIUM, Strain/Indicator: TA97, Metabolic Activation: NONE, Method: PREINCUBATION); “inactive; negative” (Test System: AMES SALMONELLA TYPHIMURIUM, Strain/Indicator: TA97, Metabolic Activation: RAT, LIVER, S-9, AROCLOR 1254 (10 OR 30%), Method: PREINCUBATION); “inactive; negative” (Test System: AMES SALMONELLA TYPHIMURIUM, Strain/Indicator: TA98, Metabolic Activation: HAMSTER, LIVER, S-9, AROCLOR 1254 (10 OR 30%), Method: PREINCUBATION); “inactive; negative” under setting [1]; “inactive; negative” (Test System: AMES SALMONELLA TYPHIMURIUM, Strain/Indicator: TA98, Metabolic Activation: RAT, LIVER, S-9, AROCLOR 1254 (10 OR 30%), Method: PREINCUBATION). The mutagenic call runs as follows: (Test System: AMES SALMONELLA TYPHIMURIUM, Strain/Indicator: TA100, Metabolic Activation: HAMSTER, LIVER, S-9, AROCLOR 1254 (10%), Method: PREINCUBATION) “inactive; negative”; under setting [2], “inactive; negative”; under setting [3], “inactive; negative”; (Test System: AMES SALMONELLA TYPHIMURIUM, Strain/Indicator: TA100, Metabolic Activation: RAT, LIVER, S-9, AROCLOR 1254 (10 OR 30%), Method: PREINCUBATION) “inactive; negative”; (Test System: AMES SALMONELLA TYPHIMURIUM, Strain/Indicator: TA1535, Metabolic Activation: HAMSTER, LIVER, S-9, AROCLOR 1254 (10 OR 30%), Method: PREINCUBATION) “inactive; negative”; (Test System: AMES SALMONELLA TYPHIMURIUM, Strain/Indicator: TA1535, Metabolic Activation: NONE, Method: PREINCUBATION) “inactive; negative”. Also, the mutagenic call (Test System: AMES SALMONELLA TYPHIMURIUM, Strain/Indicator: TA1535, Metabolic Activation: RAT, LIVER, S-9, AROCLOR 1254 (10 OR 30%), Method: PREINCUBATION) was “inactive; negative”.
Take `O=c1c(Cl)c(Cl)cnn1S(=O)(=O)c1ccc(Cl)cc1Cl`: the mutagenic call reads like this: under setting [4], “inactive; negative”; (Test System: AMES SALMONELLA TYPHIMURIUM, Strain/Indicator: TA98, Metabolic Activation: RAT, LIVER, S-9, AROCLOR 1254, Method: STANDARD PLATE) “inactive; negative”; under setting [5], “inactive; negative”; (Test System: AMES SALMONELLA TYPHIMURIUM, Strain/Indicator: TA100, Metabolic Activation: RAT, LIVER, S-9, AROCLOR 1254, Method: STANDARD PLATE) “inactive; negative”; (Test System: AMES SALMONELLA TYPHIMURIUM, Strain/Indicator: TA1535, Metabolic Activation: NONE, Method: STANDARD PLATE) “inactive; negative”; (Test System: AMES SALMONELLA TYPHIMURIUM, Strain/Indicator: TA1535, Metabolic Activation: RAT, LIVER, S-9, AROCLOR 1254, Method: STANDARD PLATE) “inactive; negative”. In addition, the mutagenic call is “inactive; negative” under setting [6] and “inactive; negative” (Test System: AMES SALMONELLA TYPHIMURIUM, Strain/Indicator: TA1537, Metabolic Activation: RAT, LIVER, S-9, AROCLOR 1254, Method: STANDARD PLATE).
In the case of `COc1cccc2c1cc1c3c(cc4c(c32)OCO4)C(=O)N1[C@H]1O[C@H](CO)[C@@H](O)[C@H](O)[C@H]1O`, for the setting “Test System: AMES SALMONELLA TYPHIMURIUM, Strain/Indicator: TM677/8-AZAGUANINE, Metabolic Activation: NONE, Method: SUSPENSION/PLATE”, the mutagenic call is “inactive; negative”.
With `C[n+]1ccn(CCS(C)(=O)=O)c1/C=N/O`, the mutagenic call by setting is: (Test System: AMES SALMONELLA TYPHIMURIUM, Strain/Indicator: TA97, Metabolic Activation: NONE, Method: STANDARD PLATE) “inactive; negative”; (Test System: AMES SALMONELLA TYPHIMURIUM, Strain/Indicator: TA97, Metabolic Activation: RAT, LIVER, S-9, Method: STANDARD PLATE) “inactive; negative”; under setting [5], “inactive; negative”; (Test System: AMES SALMONELLA TYPHIMURIUM, Strain/Indicator: TA100, Metabolic Activation: RAT, LIVER, S-9, Method: STANDARD PLATE) “inactive; negative”; (Test System: AMES SALMONELLA TYPHIMURIUM, Strain/Indicator: TA104, Metabolic Activation: NONE, Method: STANDARD PLATE) “inactive; negative”; (Test System: AMES SALMONELLA TYPHIMURIUM, Strain/Indicator: TA104, Metabolic Activation: RAT, LIVER, S-9, Method: STANDARD PLATE) “inactive; negative”. Besides, the mutagenic call reads like this: under setting [6], “inactive; negative”; (Test System: AMES SALMONELLA TYPHIMURIUM, Strain/Indicator: TA1537, Metabolic Activation: RAT, LIVER, S-9, Method: STANDARD PLATE) “inactive; negative”; (Test System: AMES SALMONELLA TYPHIMURIUM, Strain/Indicator: TA1538, Metabolic Activation: NONE, Method: STANDARD PLATE) “inactive; negative”; (Test System: AMES SALMONELLA TYPHIMURIUM, Strain/Indicator: TA1538, Metabolic Activation: RAT, LIVER, S-9, Method: STANDARD PLATE) “inactive; negative”.
As to `[N-]=[N+]=NC[C@H]1O[C@H](O)[C@H](O)[C@H](O)[C@@H]1O`, the mutagenic call was “inactive; negative” under setting [4] and “active; positive” under setting [5].
Take `Cn1c(N)nc2cc(C#N)ccc21`: the mutagenic call runs as follows: (Test System: AMES SALMONELLA TYPHIMURIUM, Strain/Indicator: TA98, Metabolic Activation: RAT, LIVER, S-9, AROCLOR 1254, Method: PREINCUBATION) “active; positive”; (Test System: AMES SALMONELLA TYPHIMURIUM, Strain/Indicator: TA100, Metabolic Activation: RAT, LIVER, S-9, AROCLOR 1254, Method: PREINCUBATION) “inactive; negative”.
Consider `Cc1ccc2c(c1N)C(=O)c1ccccc1C2=O`, for which the mutagenic call runs as follows: (Test System: AMES SALMONELLA TYPHIMURIUM, Strain/Indicator: TA98, Metabolic Activation: HAMSTER, LIVER, S-9, AROCLOR 1254 (30%), Method: PREINCUBATION) “active; positive”; under setting [1], “inactive; negative”; (Test System: AMES SALMONELLA TYPHIMURIUM, Strain/Indicator: TA98, Metabolic Activation: RAT, LIVER, S-9, AROCLOR 1254 (30%), Method: PREINCUBATION) “active; positive”; under setting [2], “inactive; negative”; under setting [3], “inactive; negative”; (Test System: AMES SALMONELLA TYPHIMURIUM, Strain/Indicator: TA100, Metabolic Activation: RAT, LIVER, S-9, AROCLOR 1254 (30%), Method: PREINCUBATION) “active; positive”. Besides, the mutagenic call is “active; positive” (Test System: AMES SALMONELLA TYPHIMURIUM, Strain/Indicator: TA1537 R+, Metabolic Activation: NONE, Method: STANDARD PLATE); “active; positive” (Test System: AMES SALMONELLA TYPHIMURIUM, Strain/Indicator: TA1537 R+, Metabolic Activation: RAT, LIVER, S-9, AROCLOR 1254, Method: STANDARD PLATE); “active; positive” (Test System: MOUSE LYMPHOMA, Strain/Indicator: L5178Y (TK+/TK-), Metabolic Activation: NONE, Method: SUSPENSION/PLATE).
`N[C@@H](CCS/C(Cl)=C/Cl)C(=O)O`: the mutagenic call runs as follows: (Test System: AMES SALMONELLA TYPHIMURIUM, Strain/Indicator: TA2638, Metabolic Activation: NONE, Method: PREINCUBATION) “inactive; negative”; (Test System: AMES SALMONELLA TYPHIMURIUM, Strain/Indicator: TA2638, Metabolic Activation: RAT, KIDNEY, CYTOSOL, Method: PREINCUBATION) “active; positive”.
For the compound `O=C/C=C\C=O`, the mutagenic call runs as follows: (End Point: In vitro micronucleus, Test System: Mouse lymphoma L5178Y cells, Metabolic Activation: None) “active; positive”; (Test System: AMES SALMONELLA TYPHIMURIUM, Strain/Indicator: TA104, Metabolic Activation: NONE, Method: PREINCUBATION) “active; positive”; (Test System: Mouse lymphoma, Strain/Indicator: L5178Y (tk+/tk-), Metabolic Activation: None, Method: Preincubation) “active; positive”.

(Values after PubChem BioAssay AID1259407 (Chemical Carcinogenesis Research Information System (CCRIS), 2018).)
